Values joined by “and” are separate entries in the source; they are usually repeats but may differ in a detail not shown here. Equal entries are not always repeated.
What follows are compounds tested against T1, DYRK1/DYRK1A (Homo sapiens, UniProt Q13627) (assay: DYRK1/DYRK1A IC50 assay (Reaction Biology Corp.)). Settings: DYRK1/DYRK1A assay from Reaction Biology Corp.; NI: No inhibition.
T1 construct: purchased Reaction Biology Corp. (assay service)
Format: biochemical
O=c1[nH]c2ccc(-c3cnc(NCc4ncco4)nc3)cc2[nH]1 [Compound 51f, 5-(2-((Oxazol-2-ylmethyl)amino)pyrimidin-5-yl)-1H-benzo[d]imidazol-2(3H)-one] gave an IC50 of 427 nM.
With COCCOc1cccc(CNc2ncc(-c3ccc4[nH]c(=O)[nH]c4c3)cn2)c1 [Compound 62, 5-(2-((3-(2-Methoxyethoxy)benzyl)amino)pyrimidin-5-yl)-1H-benzo[d]imidazol-2(3H)-one] the IC50 was 48.4 nM.
Compound COc1ccccc1Nc1ncc(-c2ccc3[nH]c(=O)[nH]c3c2)cn1 [Compound 48g, 5-(2-((2-Methoxyphenyl)amino)pyrimidin-5-yl)-1H-benzo[d]imidazol-2(3H)-one] has an IC50 of 497 nM.
With O=c1[nH]c2ccc(-c3cnc(NCc4ccccc4)nc3)cc2n1C1CC1 [Compound 57c, 6-(2-(Benzylamino)pyrimidin-5-yl)-1-cyclopropyl-1H-benzo[d]imidazol-2(3H)-one] the IC50 was 714 nM.
O=c1[nH]c2ccc(-c3cncc(NCc4ccccc4)n3)cc2[nH]1 [Compound 18m, 5-(6-(Benzylamino)pyrazin-2-yl)-1H-benzo[d]imidazol-2(3H)-one] gave an IC50 of 1.13 nM.
O=c1[nH]c2ccc(-c3cnc(NCc4ncc[nH]4)nc3)cc2[nH]1 [Compound 51c, 5-(2-(((1H-Imidazol-2-yl)methyl)amino)pyrimidin-5-yl)-1H-benzo[d]imidazol-2(3H)-one] gave an IC50 of 960 nM.
O=c1[nH]c2ccc(-c3cnc(Nc4ccccc4Cl)nc3)cc2[nH]1 [Compound 48d, 5-(2-((2-Chlorophenyl)amino)pyrimidin-5-yl)-1H-benzo[d]imidazol-2 (3H)-one] was tested, and the IC50 was 59 nM.
O=c1[nH]c2ccc(-c3cnc(NCc4cc[nH]n4)nc3)cc2[nH]1 [Compound 51e, 5-(2-(((1H-Pyrazol-3-yl)methyl)amino)pyrimidin-5-yl)-1H-benzo[d]imidazol-2(3H)-one] was tested, and the IC50 was 337 nM.
Compound C[C@H](Nc1ncc(-c2ccc3[nH]c(=O)[nH]c3c2)cn1)c1ccccc1 [Compound 60b, (S)-5-(2-((1-Phenylethyl)amino)pyrimidin-5-yl)-1H-benzo[d]imidazol-2(3H)-one] has an IC50 of 177 nM.
Compound O=c1[nH]c2ccc(-c3cnc(Nc4cccc(F)c4)nc3)cc2[nH]1 [Compound 48b, 5-(2-((3-Fluorophenyl)amino)pyrimidin-5-yl)-1H-benzo[d]imidazol-2(3H)-one] has an IC50 of 47.7 nM.
O=c1[nH]c2ccc(-c3cnc(Nc4ccc(F)cc4)nc3)cc2[nH]1 [Compound 48c, 5-(2-((4-Fluorophenyl)amino)pyrimidin-5-yl)-1H-benzo[d]imidazol-2(3H)-one] showed an IC50 of 58 nM.
O=c1[nH]c2ccc(-c3cnc(Nc4cccc(Cl)c4)nc3)cc2[nH]1 [Compound 48e, 5-(2-((3-Chlorophenyl)amino)pyrimidin-5-yl)-1H-benzo[d]imidazol-2 (3H)-one] was tested, and the IC50 was 54.9 nM.
For O=c1[nH]c2ccc(-c3cnc(Nc4ccccc4F)nc3)cc2[nH]1 [Compound 48a, 5-(2-((2-Fluorophenyl)amino)pyrimidin-5-yl)-1H-benzo[d]imidazol-2(3H)-one], the IC50 was 78 nM.
Compound O=c1[nH]c2ccc(-c3cnc(NCc4c[nH]cn4)nc3)cc2[nH]1 [Compound 51d, 5-(2-(((1H-Imidazol-4-yl)methyl)amino)pyrimidin-5-yl)-1H-benzo[d]imidazol-2(3H)-one] has an IC50 of 326 nM.
With COc1ccc(Nc2ncc(-c3ccc4[nH]c(=O)[nH]c4c3)cn2)cc1 [Compound 48i, 5-(2-((4-Methoxyphenyl)amino)pyrimidin-5-yl)-1H-benzo[d]imidazol-2(3H)-one] the IC50 was 30.1 nM.
With O=c1[nH]c2ccc(-c3cnc(Nc4ccc(Cl)cc4)nc3)cc2[nH]1 [Compound 48f, 5-(2-((4-Chlorophenyl)amino)pyrimidin-5yl)-1H-benzo[d]imidazol-2 (3H)-one] the IC50 was 90.6 nM.

The compounds below were run against DYRK1A (Homo sapiens, UniProt Q13627) (assay: DYRK1A binding assay (DiscoverX KINOMEscan)). Settings: eleven serial three fold dilutions, highest concentration 60 μM.
Protocol: Compounds were tested for DYRK1A binding activity at the commercial kinase profiling service DiscoverX. DiscoverX uses proprietary KINOMEscan® Assay (Fabian et al., “A Small Molecule-kinase Interaction Map for Clinical Kinase Inhibitors,” Nat. Biotechnol. 23(3):329-336 (2005), which is hereby incorporated by reference in its entirety). Compounds were screened for DYRK1A activity at a single concentration of 3 μM in duplicates. Similarly, the dissociation constant Kd of the hit compounds from the initial screening was determined at DiscoverX using their proprietary KINOMEscan® Assay. Kd values are determined using eleven serial three fold dilutions with the highest concentration of 60 μM.
O=c1[nH]c2ccc(-c3cnc(NCc4ccccc4F)nc3)cc2[nH]1 [Compound 29a, 5-(2-((2-Fluorobenzyl)amino)pyrimidin-5-yl)-1H-benzo[d]imidazol-2(3H)-one] gave a Kd of 69 nM.
In the case of O=c1[nH]c2ccc(-c3cnc(NCc4cccnc4)nc3)cc2[nH]1 [Compound 30b, 5-(2-((Pyridin-3-ylmethyl)amino)pyrimidin-5-yl)-1H-benzo[d]imidazol-2(3H)-one], the Kd is reported as 190 nM.
With O=c1[nH]c2ccc(-c3cnc(NCc4cccc(F)c4)nc3)cc2[nH]1 [Compound 29b, 5-(2-((3-Fluorobenzyl)amino)pyrimidin-5-yl)-1H-benzo[d]imidazol-2(3H)-one] the Kd was 91 nM.
For O=c1[nH]c2ccc(-c3cnc(NCc4ccccc4Cl)nc3)cc2[nH]1 [Compound 29c, 5-(2-((2-Chlorobenzyl)amino)pyrimidin-5-yl)-1H-benzo[d]imidazol-2(3H)-one], the Kd was 250 nM.
In the case of O=c1[nH]c2ccc(-c3cnc(NCCc4ccccc4)nc3)cc2[nH]1 [Compound 29k, 5-(2-(Phenethylamino)pyrimidin-5-yl)-1H-benzo[d]imidazol-2(3H)-one], the Kd is reported as 200 nM.
With Fc1ccc(CNc2ncc(-c3ccc4[nH]cnc4c3)cn2)cc1 [Compound 17j, 5-(1H-Benzo[d]imidazol-5-yl)-N-(4-fluorobenzyl)pyrimidin-2-amine] the Kd was 2300 nM.
For O=c1[nH]c2ccc(-c3cnc(NCc4ccccc4)nc3)cc2[nH]1 [Compound 16c], the Kd was 50 nM and 95 nM and 80 nM and 60 nM.
Compound O=c1[nH]c2ccc(-c3cnc(NCc4ccncc4)nc3)cc2[nH]1 [Compound 30c, 5-(2-((Pyridin-4-ylmethyl)amino)pyrimidin-5-yl)-1H-benzo[d]imidazol-2 (3H)-one] has a Kd of 130 nM.
Compound N#Cc1ccc(CNc2ncc(-c3ccc4[nH]c(=O)[nH]c4c3)cn2)cc1 [Compound 29g, 4-(((5-(2-Oxo-2,3-dihydro-1H-benzo[d]imidazol-5-yl)pyrimidin-2-yl)amino)methyl)benzonnrile] has a Kd of 120 nM.
For O=c1[nH]c2ccc(-c3cnc(NCc4cccc(Cl)c4)nc3)cc2[nH]1 [Compound 29d, 5-(2-((3-Chlorobenzyl)amino)pyrimidin-5-yl)-1H-benzo[d]imidazol-2(3H)-one], the Kd was 280 nM.
In the case of N#Cc1cccc(CNc2ncc(-c3ccc4[nH]c(=O)[nH]c4c3)cn2)c1 [Compound 29f, 3-(((5-(2-Oxo-2,3-dihydro-1H-benzo[d]imidazol-5-yl)pyrimidin-2-yl)amino)methyl)benzonitrile], the Kd is reported as 49 nM.
With O=c1[nH]c2ccc(-c3cnc(NCc4ccc(F)cc4)nc3)cc2[nH]1 [Compound 16b, 5-(2-((4-Fluorobenzyl)amino)pyrimidin-5-yl)-1H-benzo[d]imidazol-2(3H)-one] the Kd was 73 nM and 82 nM and 140 nM.
O=c1[nH]c2ccc(-c3cnc(NCc4ccccc4)cn3)cc2[nH]1 [Compound 18c, 5-(5-(Benzylamino)pyrazin-2-yl)-1H-benzo[d]imidazol-2(3H)-one] gave a Kd of 170 nM.
Cn1c(=O)[nH]c2ccc(-c3cnc(NCc4ccc(F)cc4)nc3)cc21 [Compound 17d, 6-(2-((4-Fluorobenzyl)amino)pyrimidin-5-yl)-1-methyl-1H-benzo[d]imidazol-2 (3H)-one] gave a Kd of 90 nM.
O=c1[nH]c2ccc(-c3cnc(NCc4cccc5ccccc45)nc3)cc2[nH]1 [Compound 30d, 5-(2-((Naphthalen-1-ylmethyl)amino)pyrimidin-5-yl)-1H-benzo[d]imidazol-2 (3H)-one] was tested, and the Kd was 920 nM.
Compound O=c1[nH]c2ccc(-c3ccc(NCc4ccc(F)cc4)nn3)cc2[nH]1 [Compound 16a, 5-(6-((4-Fluorobenzyl)amino)pyridazin-3-yl)-1H-benzo[d]imidazol-2 (3H)-one] has a Kd of 7000 nM.
In the case of CC(Nc1ncc(-c2ccc3[nH]c(=O)[nH]c3c2)cn1)c1ccccc1 (centres unmarked) [Compound 29j, 5-(2-((1-Phenylethyl)amino)pyrimidin-5-yl)-1H-benzo[d]imidazol-2(3H)-one], the Kd is reported as 360 nM.
O=c1[nH]c2ccc(-c3cnc(NCc4ccc(-c5ccccc5)cc4)nc3)cc2[nH]1 [Compound 29h, 5-(2-(([1,1′-Biphenyl]-4-ylmethyl)amino)pyrimidin-5-yl)-1H-benzo[d]imidazol-2(3H)-one] was tested, and the Kd was 1400 nM.
Work on NC(=O)c1cccc(CNc2ncc(-c3ccc4[nH]c(=O)[nH]c4c3)cn2)c1 [Compound 32a, 3-(((5-(2-Oxo-2,3-dihydro-1H-benzo[d]imidazol-5-yl)pyrimidin-2-yl)amino)methyl)benzamide] yielded a Kd of 130 nM.
For O=c1[nH]c2ccc(-c3cnc(NCc4ccc5ccccc5c4)nc3)cc2[nH]1 [Compound 30e, 5-(2-((Naphthalen-2-ylmethyl)amino)pyrimidin-5-yl)-1H-benzo[d]imidazol-2(3H)-one], the Kd was 7100 nM.
Compound NC(=O)c1ccc(CNc2ncc(-c3ccc4[nH]c(=O)[nH]c4c3)cn2)cc1 [Compound 32b, 4-(((5-(2-Oxo-2,3-dihydro-1H-benzo[d]imidazo1-5-yl)pyrimidin-2-yl)amino)methyl)benzamide] has a Kd of 46 nM.
Work on c1ccc(CNc2ncc(-c3ccc4[nH]cnc4c3)cn2)cc1 [Compound 17i, 5-(1H-Benzo[d]imidazol-5-yl)-N-benzylpyrimidin-2-amine] yielded a Kd of 2000 nM.
O=c1[nH]c2ccc(-c3cnc(NCc4ccc(Cl)cc4)nc3)cc2[nH]1 [Compound 29e, 5-(2-((4-Chlorobenzyl)amino)pyrimidin-5-yl)-1H-benzo[d]imidazol-2(3H)-one] showed a Kd of 180 nM.
Cn1c(=O)[nH]c2ccc(-c3cnc(NCc4ccccc4)nc3)cc21 [Compound 17c, 6-(2-(Benzylamino)pyrimidin-5-yl)-1-methyl-1H-benzo[d]imidazol-2(3H)-one] was tested, and the Kd was 59 nM.
In the case of O=c1[nH]c2ccc(-c3cnc(NCc4ccc(F)cc4)cn3)cc2[nH]1 [Compound 18d, 5-(5-((4-Fluorobenzyl)amino)pyrazin-2-yl)-1H-benzo[d]imidazol-2 (3H)-one], the Kd is reported as 260 nM.

Reference: patent publication US20220064146A1, “KINASE INHIBITOR COMPOUNDS AND COMPOSITIONS AND METHODS OF USE” (ICAHN SCHOOL OF MEDICINE AT MOUNT SINAI, priority 2018, published 2022)
